Laboratory results reported in ChEMBL document CHEMBL1201862, “PubChem BioAssay data set” (2004).
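Cultured in 96-well plates, cells were exposed to test compound for 48 hours across five concentrations. At the GI50, growth is halved.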 Activity calls are given as the source filed them. Cut-off read from the data, not from the text of the source: active = GI50 up to about 1.1 µM and inactive = higher.

Tests used:
Assay in all cases: NCI anticancer screen, dose series, 48 h
786-0 = test system: 786-0
A549 = test system: A549
ACHN = test system: ACHN
CAKI-1 = test system: CAKI-1
COLO 205 = test system: COLO 205
HOP-92 = test system: HOP-92
M14 = test system: M14
NCI-H522 = test system: NCI-H522
OVCAR-4 = test system: OVCAR-4
SF-539 = test system: SF-539
SK-MEL-28 = test system: SK-MEL-28
SK-MEL-5 = test system: SK-MEL-5
SR = test system: SR
SW-620 = test system: SW-620
UACC-257 = test system: UACC-257
MCF7 = test system: MCF7
MDA-N = test system: MDA-N
NCI/ADR-RES = test system: NCI/ADR-RES
PC-3 = test system: PC-3

Measured: GI50

S=P(N1CCCC1)(N1CC1)N1CC1
inactive: 786-0 > 100 µM | A549 > 100 µM | ACHN 71.6 µM | CAKI-1 49.4 µM | COLO 205 > 100 µM | HOP-92 > 10 µM | M14 > 100 µM | NCI-H522 83.9 µM | OVCAR-4 > 100 µM | SF-539 > 100 µM | SK-MEL-28 > 100 µM | SK-MEL-5 > 100 µM | SR 83.8 µM | SW-620 > 100 µM | UACC-257 > 100 µM

CC(C)(C)/N=C1/CC(C)(C)c2ccccc2/C(=N\c2ccccc2)S1
inactive: 786-0 39.4 µM | A549 36.4 µM | ACHN 28.2 µM | CAKI-1 40.2 µM | COLO 205 23.3 µM | M14 39.5 µM | NCI-H522 15.2 µM | SF-539 60.4 µM | SK-MEL-28 37.4 µM | SK-MEL-5 24.6 µM | SW-620 44 µM | UACC-257 30 µM

Cc1ccccc1C(=O)c1ccccc1O
inactive: 786-0 > 100 µM | A549 > 100 µM | ACHN > 100 µM | CAKI-1 > 84.3 µM | COLO 205 > 100 µM | HOP-92 > 100 µM | M14 > 100 µM | OVCAR-4 > 100 µM | SF-539 > 100 µM | SK-MEL-28 > 100 µM | SK-MEL-5 > 100 µM | SW-620 > 100 µM | UACC-257 > 100 µM

Cc1ccc(C2=C(c3ccccc3)C(Br)(c3ccccc3)C(c3ccccc3)=C2c2ccc(C)cc2)cc1
inactive: 786-0 > 100 µM | A549 > 100 µM | ACHN > 100 µM | CAKI-1 > 100 µM | COLO 205 > 100 µM | HOP-92 > 100 µM | M14 > 100 µM | NCI-H522 > 100 µM | OVCAR-4 > 100 µM | SF-539 > 100 µM | SK-MEL-28 > 100 µM | SK-MEL-5 > 100 µM | SW-620 > 100 µM | UACC-257 > 100 µM

NC1CC=C(COC(=O)C(O)(c2ccccc2)C2CC2)CC1 (stereo not drawn)
inactive: 786-0 > 100 µM | A549 > 100 µM | ACHN > 100 µM | CAKI-1 > 100 µM | COLO 205 > 100 µM | M14 > 100 µM | MCF7 > 100 µM | MDA-N > 100 µM | NCI-H522 > 100 µM | NCI/ADR-RES > 100 µM | PC-3 > 100 µM | SF-539 > 100 µM | SK-MEL-28 > 100 µM | SK-MEL-5 > 100 µM | SR > 100 µM | SW-620 > 100 µM | UACC-257 > 100 µM

COC(=O)c1c(C(=O)OC)c2ccc(-c3ccc(Cl)cc3)nn2c1C(=O)c1ccc([N+](=O)[O-])cc1
inactive: 786-0 39.4 µM | A549 > 100 µM | ACHN 43 µM | CAKI-1 32.9 µM | COLO 205 27.3 µM | HOP-92 10.8 µM | M14 40.6 µM | MCF7 40.2 µM | MDA-N 66.2 µM | NCI-H522 17.4 µM | NCI/ADR-RES > 100 µM | OVCAR-4 42.3 µM | PC-3 > 100 µM | SF-539 44.4 µM | SK-MEL-28 > 100 µM | SK-MEL-5 52.1 µM | SW-620 41.5 µM | UACC-257 > 100 µM

N#CC(NNC(=O)c1ccccc1O)c1ccc(O)cc1 (stereo not drawn)
inactive: 786-0 8.02 µM | A549 2.74 µM | ACHN 2.33 µM | CAKI-1 6 µM | COLO 205 29.2 µM | HOP-92 3.48 µM | M14 6.93 µM | NCI-H522 12.8 µM | OVCAR-4 13.1 µM | SF-539 3.78 µM | SK-MEL-28 > 100 µM | SK-MEL-5 19.4 µM | SR 2.8 µM | SW-620 26.7 µM | UACC-257 15.6 µM

Oc1ccc(-c2nc3ccc(F)cc3s2)cc1
inactive: 786-0 18.5 µM | A549 19.8 µM | ACHN 19.1 µM | CAKI-1 19.7 µM | COLO 205 16.2 µM | M14 20.4 µM | MCF7 17.5 µM | MDA-N 23.5 µM | NCI-H522 13.2 µM | NCI/ADR-RES 21.1 µM | OVCAR-4 23 µM | PC-3 21.4 µM | SF-539 17.8 µM | SK-MEL-5 18 µM | SR 26.1 µM | SW-620 29.9 µM | UACC-257 17.1 µM

O=c1[nH]c(=O)n(C2CC(O)C(CO)O2)cc1COCC(F)(F)F (stereo not drawn)
inactive: 786-0 > 100 µM | A549 > 100 µM | ACHN > 100 µM | CAKI-1 > 100 µM | COLO 205 > 100 µM | HOP-92 > 100 µM | M14 > 100 µM | NCI-H522 > 100 µM | OVCAR-4 > 100 µM | SF-539 > 100 µM | SK-MEL-5 > 100 µM | SW-620 > 100 µM | UACC-257 > 100 µM

C#CCOCn1cnc2c(N)ncnc21
inactive: 786-0 > 100 µM | A549 > 100 µM | ACHN > 100 µM | CAKI-1 > 100 µM | COLO 205 > 100 µM | HOP-92 > 100 µM | M14 > 100 µM | NCI-H522 > 100 µM | OVCAR-4 > 100 µM | SF-539 > 100 µM | SK-MEL-28 > 100 µM | SK-MEL-5 > 100 µM | SR > 100 µM | SW-620 > 100 µM | UACC-257 > 100 µM

O=C(CC(=O)n1nc(-c2ccccc2)c(/N=N/c2ccccc2Cl)c1-c1ccccc1)Nc1ccc(Cl)cc1
inactive: 786-0 > 52.7 µM | A549 > 54.1 µM | ACHN > 100 µM | CAKI-1 > 100 µM | COLO 205 > 44.5 µM | HOP-92 > 100 µM | M14 > 100 µM | NCI-H522 > 100 µM | OVCAR-4 > 100 µM | SF-539 > 100 µM | SK-MEL-28 > 100 µM | SK-MEL-5 > 100 µM | SR > 100 µM | SW-620 > 48.6 µM | UACC-257 > 83.2 µM

C/C(CN1C(=O)c2ccccc2C1=O)=N\NS(=O)(=O)c1ccc(Br)cc1
inactive: 786-0 > 100 µM | A549 > 100 µM | ACHN > 100 µM | CAKI-1 > 100 µM | COLO 205 > 100 µM | HOP-92 74.8 µM | M14 > 100 µM | NCI-H522 > 100 µM | OVCAR-4 > 100 µM | SF-539 > 100 µM | SK-MEL-28 > 100 µM | SK-MEL-5 > 100 µM | SW-620 > 100 µM | UACC-257 > 100 µM

O=C1C(=O)N(c2ccc(Cl)c(Cl)c2)C(=O)C(=O)C1c1nc2ccccc2o1
inactive: 786-0 > 100 µM | A549 > 100 µM | ACHN > 100 µM | CAKI-1 > 100 µM | COLO 205 47.2 µM | HOP-92 > 100 µM | M14 80.4 µM | NCI-H522 57.4 µM | OVCAR-4 95.7 µM | SF-539 > 100 µM | SK-MEL-28 > 100 µM | SR 30 µM | SW-620 56.5 µM | UACC-257 98.4 µM

Cc1nc2ccccc2nc1NS(=O)(=O)c1ccc(N)cc1
inactive: 786-0 > 100 µM | A549 > 100 µM | ACHN > 100 µM | CAKI-1 > 100 µM | COLO 205 > 100 µM | HOP-92 > 100 µM | M14 > 100 µM | NCI-H522 > 100 µM | OVCAR-4 > 100 µM | SF-539 > 100 µM | SK-MEL-28 > 100 µM | SK-MEL-5 > 100 µM | SR > 100 µM | SW-620 > 100 µM | UACC-257 > 100 µM

CO/S(=N/S(=O)(=O)c1ccccc1)c1ccccc1[N+](=O)[O-] (stereo not drawn)
inactive: 786-0 > 100 µM | A549 > 100 µM | ACHN > 100 µM | CAKI-1 > 100 µM | COLO 205 > 100 µM | M14 > 100 µM | NCI-H522 > 100 µM | OVCAR-4 > 100 µM | SF-539 > 100 µM | SK-MEL-28 > 100 µM | SK-MEL-5 > 100 µM | SR > 100 µM | SW-620 > 100 µM | UACC-257 > 100 µM

N#CCCC(C#N)(C#N)CCC#N
inactive: 786-0 > 100 µM | A549 > 100 µM | ACHN > 100 µM | COLO 205 > 100 µM | M14 > 100 µM | NCI-H522 > 100 µM | SF-539 > 100 µM | SK-MEL-28 > 100 µM | SK-MEL-5 > 100 µM | SR > 100 µM | SW-620 > 100 µM | UACC-257 > 100 µM

Nc1nc(O)c([N+](=O)[O-])c(NCCOCP(=O)(O)O)n1
inactive: 786-0 > 100 µM | A549 > 100 µM | ACHN > 100 µM | COLO 205 > 100 µM | HOP-92 > 100 µM | M14 > 100 µM | NCI-H522 > 100 µM | SF-539 > 100 µM | SK-MEL-28 > 100 µM | SR > 100 µM | SW-620 > 100 µM | UACC-257 > 100 µM

CCC1(c2c(F)c(F)c(N)c(F)c2F)CCC(=O)NC1=O (stereo not drawn)
inactive: 786-0 > 100 µM | A549 > 100 µM | ACHN > 100 µM | CAKI-1 > 100 µM | COLO 205 > 100 µM | HOP-92 > 100 µM | M14 > 100 µM | NCI-H522 > 100 µM | OVCAR-4 > 100 µM | SF-539 > 100 µM | SK-MEL-28 > 100 µM | SK-MEL-5 > 100 µM | SR > 100 µM | SW-620 > 100 µM | UACC-257 > 100 µM

O=C1C[C@H]2CC3(CC[C@H]2CN1)OCCO3
inactive: 786-0 > 100 µM | A549 > 100 µM | CAKI-1 > 100 µM | COLO 205 > 100 µM | HOP-92 > 100 µM | M14 > 100 µM | NCI-H522 > 100 µM | OVCAR-4 > 100 µM | SF-539 > 100 µM | SK-MEL-28 > 100 µM | SK-MEL-5 > 100 µM | SW-620 > 100 µM | UACC-257 > 100 µM
